Type in all cases: functional
Common to all, as to conditions: read-out: IZ

Assay [1] deals with Fusarium solani. As to the kind of experiment: Antifungal activity against Fusarium solani at 200 ug/ml after 48 hrs by disc diffusion method. Background: Agar diffusion results depend on both activity and mobility in agar.
Assay [2] has as its system Bacillus subtilis. As to the kind of experiment: Antibacterial activity against Bacillus subtilis at 100 ug/ml after 24 hrs by disc diffusion method.
In assay [3] the test system is Candida albicans. As to the kind of experiment: Antifungal activity against Candida albicans at 200 ug/ml after 48 hrs by disc diffusion method.
The test system of assay [4] is Fusarium solani. As to the kind of experiment: Antifungal activity against Fusarium solani at 100 ug/ml after 48 hrs by disc diffusion method.
The subject of assay [5] is Candida albicans. The assay can be described thus: Antifungal activity against Candida albicans at 100 ug/ml after 48 hrs by disc diffusion method.
In assay [6] the test system is Escherichia coli. The assay can be described thus: Antibacterial activity against Escherichia coli at 100 ug/ml after 24 hrs by disc diffusion method.
In assay [7] the test system is Staphylococcus aureus. The assay can be described thus: Antibacterial activity against Staphylococcus aureus at 100 ug/ml after 24 hrs by disc diffusion method.
Assay [8] has as its system Staphylococcus aureus. The assay can be described thus: Antibacterial activity against Staphylococcus aureus at 200 ug/ml after 24 hrs by disc diffusion method.
Assay [9] concerns Aspergillus niger. The assay can be described thus: Antifungal activity against Aspergillus niger at 200 ug/ml after 48 hrs by disc diffusion method.
The test system of assay [10] is Aspergillus niger. As to the kind of experiment: Antifungal activity against Aspergillus niger at 100 ug/ml after 48 hrs by disc diffusion method.
Assay [11] relates to Bacillus subtilis. As to the kind of experiment: Antibacterial activity against Bacillus subtilis at 200 ug/ml after 24 hrs by disc diffusion method.
Assay [12] concerns Klebsiella pneumoniae. The assay can be described thus: Antibacterial activity against Klebsiella pneumoniae at 200 ug/ml after 24 hrs by disc diffusion method.
Assay [13] has as its system Klebsiella pneumoniae. As to the kind of experiment: Antibacterial activity against Klebsiella pneumoniae at 100 ug/ml after 24 hrs by disc diffusion method.
Assay [14] deals with Escherichia coli. As to the kind of experiment: Antibacterial activity against Escherichia coli at 200 ug/ml after 24 hrs by disc diffusion method.

Data on 10 compounds can be found in ChEMBL document CHEMBL1914295, “Synthesis and biological evaluation of some novel triazol-3-ones as antimicrobial agents” (2011).

`N#CCn1ncn(-c2nc(-c3ccsc3)cs2)c1=O`: the zone of inhibition at 200 µg/mL with Fusarium solani [1] was 34 mm; in the assay on Candida albicans [3], 32 mm; in the assay with Staphylococcus aureus [8] it was 31 mm; in the assay with Aspergillus niger [9] it was 29 mm; in the assay on Bacillus subtilis [11] it was 26 mm; in the assay with Klebsiella pneumoniae [12] it was 21 mm. The zone of inhibition at 200 µg/mL in the assay on Escherichia coli [14] came to 29 mm. For the same compound, the zone of inhibition at 100 µg/mL in the assay with Bacillus subtilis [2] was 23 mm; in the assay with Fusarium solani [4], 28 mm; with Candida albicans [5] it was 28 mm; with Escherichia coli [6], 26 mm; in the assay with Staphylococcus aureus [7], 28 mm; in the assay on Aspergillus niger [10] it was 27 mm. Moreover, the zone of inhibition at 100 µg/mL in the assay with Klebsiella pneumoniae [13] is 16 mm.
As for `CC1Sc2sccc2-c2nc(-n3cn[nH]c3=O)sc21` (stereo unspecified), the zone of inhibition at 200 µg/mL came to 24 mm with Fusarium solani [1]; 28 mm with Candida albicans [3]; 21 mm with Staphylococcus aureus [8]; 29 mm in the assay with Aspergillus niger [9]; 23 mm with Bacillus subtilis [11]; 20 mm in the assay on Klebsiella pneumoniae [12]. Further, in the assay with Escherichia coli [14], the zone of inhibition at 200 µg/mL was determined as 20 mm. Also, the zone of inhibition at 100 µg/mL in the assay on Bacillus subtilis [2] came to 20 mm; in the assay on Fusarium solani [4] it was 22 mm; in the assay with Candida albicans [5], 25 mm; with Escherichia coli [6] it was 15 mm; in the assay with Staphylococcus aureus [7], 18 mm; in the assay with Aspergillus niger [10], 26 mm. Further, the zone of inhibition at 100 µg/mL in the assay with Klebsiella pneumoniae [13] was found to be 17 mm.
For the compound `Cn1ncn(-c2nc(-c3ccsc3)cs2)c1=O`, the zone of inhibition at 200 µg/mL in the assay with Fusarium solani [1] is 43 mm; with Candida albicans [3], 40 mm; in the assay with Staphylococcus aureus [8], 35 mm; in the assay on Aspergillus niger [9], 42 mm; with Bacillus subtilis [11], 36 mm; with Klebsiella pneumoniae [12], 28 mm. Also, the zone of inhibition at 200 µg/mL with Escherichia coli [14] turned out to be 25 mm. Moreover, the zone of inhibition at 100 µg/mL in the assay on Bacillus subtilis [2] was 34 mm; in the assay with Fusarium solani [4], 40 mm; with Candida albicans [5], 36 mm; in the assay with Escherichia coli [6], 23 mm; in the assay on Staphylococcus aureus [7], 32 mm; in the assay on Aspergillus niger [10], 39 mm. For the same compound, in the assay with Klebsiella pneumoniae [13], the zone of inhibition at 100 µg/mL was 26 mm.
Turning to `CCn1ncn(-c2nc3c(s2)C(C)Sc2sccc2-3)c1=O` (stereo unspecified), the zone of inhibition at 200 µg/mL amounted to 31 mm in the assay with Fusarium solani [1]; 29 mm in the assay with Candida albicans [3]; 29 mm in the assay with Staphylococcus aureus [8]; 26 mm with Aspergillus niger [9]; 31 mm in the assay on Bacillus subtilis [11]; 26 mm in the assay on Klebsiella pneumoniae [12]. In addition, the zone of inhibition at 200 µg/mL in the assay on Escherichia coli [14] came out at 27 mm. The zone of inhibition at 100 µg/mL in the assay on Bacillus subtilis [2] came to 28 mm; in the assay on Fusarium solani [4], 28 mm; in the assay on Candida albicans [5], 26 mm; with Escherichia coli [6], 22 mm; in the assay on Staphylococcus aureus [7], 25 mm; in the assay with Aspergillus niger [10], 23 mm. Besides, the zone of inhibition at 100 µg/mL with Klebsiella pneumoniae [13] was 24 mm.
For the compound `CC1Sc2sccc2-c2nc(-n3cnn(C(C)C)c3=O)sc21` (stereo unspecified), the zone of inhibition at 200 µg/mL in the assay with Fusarium solani [1] turned out to be 19 mm; in the assay with Candida albicans [3], 21 mm; in the assay with Staphylococcus aureus [8] it was 16 mm; with Aspergillus niger [9], 22 mm; in the assay with Bacillus subtilis [11], 15 mm; in the assay with Klebsiella pneumoniae [12], 16 mm. Also, in the assay on Escherichia coli [14], the zone of inhibition at 200 µg/mL came out at 18 mm. The zone of inhibition at 100 µg/mL in the assay on Bacillus subtilis [2] was determined as 13 mm; in the assay with Fusarium solani [4] it was 17 mm; in the assay on Candida albicans [5], 16 mm; in the assay on Escherichia coli [6], 15 mm; in the assay with Staphylococcus aureus [7], 14 mm; with Aspergillus niger [10] it was 17 mm. Moreover, the zone of inhibition at 100 µg/mL in the assay with Klebsiella pneumoniae [13] was 14 mm.
With `CC(=O)N1CCN(c2ccc(OCC3COC(Cn4ccnc4)(c4ccc(Cl)cc4Cl)O3)cc2)CC1` (stereo unspecified) [KETOCONAZOLE], the results for the zone of inhibition at 200 µg/mL in the assay with Fusarium solani [1], with Candida albicans [3] and in the assay with Aspergillus niger [9] were 42 mm, 39 mm and 44 mm, respectively. The zone of inhibition at 100 µg/mL turned out to be 38 mm in the assay on Fusarium solani [4], 36 mm in the assay on Candida albicans [5] and 41 mm with Aspergillus niger [10].
Take `CCn1ncn(-c2nc(-c3ccsc3)cs2)c1=O`: the zone of inhibition at 200 µg/mL in the assay on Fusarium solani [1] was 32 mm; in the assay with Candida albicans [3], 29 mm; in the assay on Staphylococcus aureus [8], 32 mm; in the assay on Aspergillus niger [9], 24 mm; in the assay on Bacillus subtilis [11] it was 27 mm; with Klebsiella pneumoniae [12] it was 28 mm. In addition, the zone of inhibition at 200 µg/mL with Escherichia coli [14] turned out to be 29 mm. Besides, the zone of inhibition at 100 µg/mL in the assay with Bacillus subtilis [2] came to 21 mm; in the assay on Fusarium solani [4] it was 29 mm; in the assay on Candida albicans [5], 23 mm; in the assay on Escherichia coli [6], 23 mm; in the assay on Staphylococcus aureus [7], 24 mm; in the assay on Aspergillus niger [10] it was 21 mm. Moreover, in the assay on Klebsiella pneumoniae [13], the zone of inhibition at 100 µg/mL was determined as 26 mm.
`CC(C)Cn1ncn(-c2nc(-c3ccsc3)cs2)c1=O`: the zone of inhibition at 200 µg/mL in the assay on Fusarium solani [1] came out at 30 mm; in the assay on Candida albicans [3], 21 mm; with Staphylococcus aureus [8], 20 mm; in the assay on Aspergillus niger [9], 27 mm; with Bacillus subtilis [11] it was 18 mm; in the assay with Klebsiella pneumoniae [12] it was 18 mm. Also, the zone of inhibition at 200 µg/mL in the assay with Escherichia coli [14] amounted to 21 mm. The zone of inhibition at 100 µg/mL in the assay with Bacillus subtilis [2] turned out to be 16 mm; with Fusarium solani [4], 26 mm; in the assay on Candida albicans [5], 17 mm; in the assay with Escherichia coli [6], 17 mm; with Staphylococcus aureus [7] it was 16 mm; in the assay with Aspergillus niger [10], 26 mm. In the assay with Klebsiella pneumoniae [13], the zone of inhibition at 100 µg/mL was determined as 15 mm.
Take `CC1Sc2sccc2-c2nc(-n3cnn(C)c3=O)sc21` (stereo unspecified): the zone of inhibition at 200 µg/mL in the assay with Fusarium solani [1] amounted to 26 mm; in the assay with Candida albicans [3] it was 24 mm; with Staphylococcus aureus [8], 16 mm; with Aspergillus niger [9] it was 23 mm; in the assay on Bacillus subtilis [11] it was 19 mm; with Klebsiella pneumoniae [12], 19 mm. Moreover, the zone of inhibition at 200 µg/mL in the assay on Escherichia coli [14] came out at 21 mm. Moreover, the zone of inhibition at 100 µg/mL is 16 mm in the assay with Bacillus subtilis [2]; 24 mm with Fusarium solani [4]; 22 mm in the assay with Candida albicans [5]; 18 mm with Escherichia coli [6]; 14 mm in the assay on Staphylococcus aureus [7]; 20 mm with Aspergillus niger [10]. The zone of inhibition at 100 µg/mL in the assay on Klebsiella pneumoniae [13] came out at 16 mm.
In the case of `O=C(N[C@H](CO)[C@H](O)c1ccc([N+](=O)[O-])cc1)C(Cl)Cl` [CHLORAMPHENICOL], the zone of inhibition at 100 µg/mL in the assay with Bacillus subtilis [2] worked out at 38 mm; in the assay with Escherichia coli [6] it was 40 mm; with Staphylococcus aureus [7], 35 mm; with Klebsiella pneumoniae [13] it was 42 mm. Further, the zone of inhibition at 200 µg/mL in the assay with Staphylococcus aureus [8] came out at 39 mm; with Bacillus subtilis [11], 41 mm; in the assay on Klebsiella pneumoniae [12] it was 45 mm; in the assay on Escherichia coli [14], 44 mm.
